From patent publication US5610195A, “Ornithine decarboxylase inhibiting branched aminooxy amino alkane derivatives” (Ciba-Geigy Corporation, priority 1993, dated 1997)
Where a name gives a salt, the structure may show the parent alone. Read-outs that look alike come from different tables or passages of the source.

Tests used:
DAO from pig kidney = target: T1, DAO from pig kidney (Sus scrofa, UniProt Q9TRC7); test: selectivity: inhibition of diamine oxidase (14C-putrescine assay) relative to ODC; assay type: biochemical; settings: ODC from rat liver
T1 construct: DAO from pig kidney; purchased Sigma Chemie, Deisenhofen, Germany; host or cells: pig kidney
T1 sequence (Q9TRC7 25-755): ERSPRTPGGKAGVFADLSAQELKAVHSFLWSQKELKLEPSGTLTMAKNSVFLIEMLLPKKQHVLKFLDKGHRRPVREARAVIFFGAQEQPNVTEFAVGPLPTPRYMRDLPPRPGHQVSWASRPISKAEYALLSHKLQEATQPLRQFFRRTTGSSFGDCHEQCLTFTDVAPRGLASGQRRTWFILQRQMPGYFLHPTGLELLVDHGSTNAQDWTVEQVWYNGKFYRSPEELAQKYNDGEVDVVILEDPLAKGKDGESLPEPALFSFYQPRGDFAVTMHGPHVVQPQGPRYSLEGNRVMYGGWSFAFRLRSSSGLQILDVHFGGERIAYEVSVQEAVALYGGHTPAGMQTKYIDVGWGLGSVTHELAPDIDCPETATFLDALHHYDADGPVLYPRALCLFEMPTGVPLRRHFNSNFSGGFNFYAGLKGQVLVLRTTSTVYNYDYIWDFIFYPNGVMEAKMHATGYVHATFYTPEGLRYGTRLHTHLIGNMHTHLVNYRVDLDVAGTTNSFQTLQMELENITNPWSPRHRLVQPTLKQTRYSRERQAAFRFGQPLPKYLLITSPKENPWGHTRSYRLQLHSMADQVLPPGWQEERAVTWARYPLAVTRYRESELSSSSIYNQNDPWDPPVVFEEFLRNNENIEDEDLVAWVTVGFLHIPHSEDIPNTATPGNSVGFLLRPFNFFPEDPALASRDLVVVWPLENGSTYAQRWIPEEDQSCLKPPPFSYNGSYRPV
Protocol: Briefly, the batch contains (expressed as the final concentrations) 0.1M potassium phosphate buffer pH 7.4; 10 mM mercaptoethanol, 0.40 mM putrescine, including 40 nCi [1,4-^14 C]putrescine (Amersham, 110 Ci/mole) and variable amounts of enzyme protein (DAO) and inhibitor. For standard experiments, the batches are incubated for 30 minutes at 37° C. and then transferred to an ice-bath. The reaction is stopped by addition of 0.5 ml of ice-cold 1M Na2 CO3 solution which contains 1 mM aminoguanidine. After addition of 4 ml of toluene with 5 g/l of PPO (2,5-diphenyloxazole), the test tube is continuously inverted around the transverse axis at room temperature for 10 minutes, for mixing, and is then centrifuged at 1800×g in a centrifugal rotor at 4° C. for 5 minutes and finally frozen in ethanol/dry ice. […] After a total of 3 extractions, the combined toluene extracts (which contain the radiolabelled 1-pyrroline to the extent that it has been liberated from putrescine by the action of the DAO) are measured in a liquid scintillation counter (Rack Beta 1215, LKB-Wallac). For calculation of the radioactivity employed, an aliquot of the aqueous phase after 3 extractions is transferred to Whatman GF/C filter (glass fibre filter, Whatman, USA), dried in vacuo and, after addition of 5 ml of toluene/PPO, is counted. […]

[1] = cited: Eloranta et al., Life Chemistry Reports 9, 163-169 (1991); cited from earlier work
ODC = settings: known compound, state of the art; cited from earlier work
diamine oxidase (DAO) = settings: known compound, state of the art; cited from earlier work
ODC from the rat liver = target: T2, ODC from the rat liver (Rattus norvegicus, UniProt P09057); test: inhibition of ornithine decarboxylase (Seely and Pegg method, ODC from rat liver); assay type: biochemical
T2 sequence (P09057 1-461): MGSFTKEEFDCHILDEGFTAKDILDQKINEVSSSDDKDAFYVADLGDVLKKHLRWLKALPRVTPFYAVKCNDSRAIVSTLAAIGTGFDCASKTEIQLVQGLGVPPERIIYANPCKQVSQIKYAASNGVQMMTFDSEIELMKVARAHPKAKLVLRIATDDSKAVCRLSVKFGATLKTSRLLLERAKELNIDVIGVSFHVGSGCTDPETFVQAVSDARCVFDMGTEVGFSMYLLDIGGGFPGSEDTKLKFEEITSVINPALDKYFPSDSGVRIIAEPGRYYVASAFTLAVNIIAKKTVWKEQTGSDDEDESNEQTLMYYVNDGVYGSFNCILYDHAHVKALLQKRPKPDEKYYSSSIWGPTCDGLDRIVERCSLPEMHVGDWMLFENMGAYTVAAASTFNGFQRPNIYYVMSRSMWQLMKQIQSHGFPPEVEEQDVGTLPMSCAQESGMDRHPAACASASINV
Protocol: White-Tabor (editors): Methods in Enzymology, Volume 94: Polyamines, Academic Press, New York 1983. If ODC from the rat liver is used in this test (isolation: Hayashi, S. I. and Kameji, T., same volume, pages 154-158), IC50 values in the micromolar range down to about 0.01 μM, preferably between about 0.01 and 1 μM, for example between 0.014 and 0.7 μM, are obtained for compounds of the formula I. IC50 is the concentration of the inhibitor at which the ODC activity is 50% of a control without inhibitor.
The following results were obtained for inhibition of ODC from the rat liver (see above, Seely and Pegg and Hayashi and Kameji) with determination of the IC50 and for inhibition of the tumour growth of T24 bladder carcinoma cells (described above) with determination of the IC50 : […]

[2] = system: human T24 bladder carcinoma cells; test: inhibition of growth of human T24 bladder carcinoma cells (methylene blue staining); assay type: cell-based; settings: 120 h, read-out: T24 inhibition IC50
Protocol: The carcinoma cells (1000-1500) are transinoculated into 96-well microtitre plates and incubated overnight under the conditions mentioned. The test substance is added in serial dilutions on day 1. The plates are incubated under the conditions mentioned for 5 days. […] After the incubation, the cells are fixed with 3.3% (weight/volume=w/v) aqueous glutaraldehyde solution, washed with water and stained with 0.05% (w/v) aqueous methylene blue solution. After washing, the dye is eluted with 3% (w/v) aqueous hydrochloric acid. Thereafter, the optical density (OD) per depression, which is directly proportional to the number of cells, is measured with a photometer (Titertek multiskan) at 665 nm. The IC50 values are calculated with a computer system using the formula [formula]

[3] = human T24 bladder carcinoma cells, 5 days

SMILES	IC50 (ODC from the rat liver)	IC50 [2, 3]	also measured
NCCCON [APA, 1-aminooxy-3-aminopropane]			quotient of IC50 (DAO)/IC50 (ODC) (DAO from pig kidney): about 1.2; activity in whole animals [1]: practically no action in whole animal tests; inhibition of ODC (in words) (ODC): potent inhibitor of ODC; selectivity with respect to diamine oxidase (in words) (diamine oxidase (DAO)): not selective with respect to diamine oxidase
C[C@H](N)CCON [Example 1, (2S)-4-Aminooxy-2-butylamine dihydrochloride]	88 nM	8100 nM	
C[C@@H](N)CCON [Example 2, (2R)-4-Aminooxy-2-butylamine dihydrochloride]	27 nM	5490 nM	
CC(N)CCON (centres unmarked) [Example 3, 4-Aminooxy-2-butylamine dihydrochloride]	19 nM	3760 nM	
CC(CN)CON (centres unmarked) [Example 7, 3-Aminooxy-2-methyl-1-propylamine sulfate]	27 nM		IC50 ([2]; Homo sapiens): 2740 nM

Now from value to compound, other results behind:

IC50 (ODC from the rat liver)	IC50 [2, 3]	SMILES	also measured
360 nM		CCC(N)CCON (centres unmarked) [Example 4, 1-aminooxy-3-pentylamine dihydrochloride]	
300 nM		CC(C)(N)CCON [Example 5, 4-Aminooxy-2-methyl-2-butylamine dihydrochloride]	
440 nM		NOCC[C@H](N)CO [Example 6, (2S)-4-Aminooxy-1-hydroxy-2-butylamine sulfate]	
410 nM		CC(CCN)ON (centres unmarked) [Example 9, 3-Aminooxy-1-butylamine dihydrochloride]	
320 nM		CC(N)C(C)CON (centres unmarked) [Example 10, 4-Aminooxy-3-methyl-2-butylamine sulfate]	
